Results: patent US4870160A, “Polypeptides with laminin activity” (Regents of the University of Minnesota, priority 1987, dated 1989)
Peptide text beside a SMILES is read from it.

Assays:
intact, native laminin = intact, native laminin (Mus musculus, UniProt P02469+P19137); experiment: Inhibition of heparin binding to laminin by peptide fragments in solution (Example 3); conditions: peptides in solution 1 mg/ml to 1 μg/ml, laminin coated on plastic at 60 μg/ml, FIG. 6
Description: Peptides 9, 11-14 and 16 in solution (and not absorbed to plastic), were screened for the ability to inhibit the binding of heparin to intact, native laminin coated on plastic. This experimental approach avoids problems due to differential coating of peptides in heparin binding assays. Laminin at 60 μg/ml in PBS was coated on 96-well plates, using 50 μls per well and dried overnight at 28+ C. The wells were then treated for two hours with 2 mg/ml BSA in wash buffer (described above in Example 2). Peptides at various dilutions ranging from 1 mg/ml to 1 μg/ml in PBS and CHAPS (Cholamido-propyl-dimethyl-Axmmonio-PropaneSulfonate)(a detergent used to avoid non-specific sticking) were co-incubated with a standard amount of ^3 H-heparin (25,000 cpm per well 5 μg/ml final concentration) for two hours at 37° C. and the mixture was then transferred to the laminin coated plate (50 μl) and allowed to incubate for another two hours at 37° C. The wells were then washed and radioactivity was counted as described above.

[1] = system: Bovine aortic endothelial cells; experiment: Aortic endothelial cell adhesion assay (Example 5); format: cell-based; conditions: 0.1; 1.0; and 10.0 μg/per well adsorbed, 120 minutes at 37° C, FIG. 9
Description: Bovine aortic endothelial cells were isolated according to the following protocol. Aortas were obtained from a local slaughterhouse, washed in cold phosphate buffered saline (PBS) (136 mM NaCl, 2.6 mM KCl, 15.2 mM Na2HP04, pH 7.2) and processed within 2 hours. Crude collagenase (CLS III, 125-145 units per mg dry weight, Cooper Biomedical) was used at 2 mg/ml in Dulbecco's modified Eagle's medium (DMEM) (GIBCO). The vessel was clamped at the distal end, filled with the collagenase-PBS solution and digestion was carried out for 10 minutes. The lumenal contents were harvested, followed by the addition of fresh collagenase for two additional 10-minute periods. The enzyme-cell suspensions were added to an equal volume of DMEM containing 10% fetal bovine serum (FBS) to inhibit the enzyme and spun in a centrifuge at 400×g for 10 minutes. The resulting cell pellet was resuspended in DMEM containing 10% FBS, 100 units/ml of penicillin G, 100 μg/ml of streptomycin and 100 μg/ml of crude fibroblast growth factor. Cells are cultured in 75 cm^2 flasks in a humidified 5% CO2 atmosphere at 37° C. Cultures were fed twice a week with the same medium and cells were used in assays when approximately 75% confluent. Cells were identified as endothelial in nature by characteristic cobblestone morphology, contact inhibition of growth upon reaching confluency, and positive immunofluorescent staining for factor VIII:RAg (Miles Laboratories) [S. Schwartz, In Vitro, 14, 966 (1978)]. Only endothelial cells, megakaryocytes and platelets are known to contain the factor VIII:RAg. This method routinely gives a high yield of endothelial cells with little contamination (less than 5%) by smooth muscle cells, pericytes or fibroblasts as judged by phase contrast microscopy as well as by immunostaining.
Adhesion was measured using 96 well microtiter plates adsorbed with three different amounts (0.1; 1.0; and 10.0 μg/per well) of peptides 9, 11-18, BSA and laminin. Cultures of cells which were 60-80% confluent were metabolically labeled for 24 hours with the addition of 3 mCi/ml of ^3 H-amino acid mixture. On the day of the assay, the cells were harvested by trypsinization, the trypsin was inhibited by the addition of serum, and the cells were washed free of this mixture and resuspended in DMEM buffered with HEPES at pH 7.2. The adhesion medium also contained 2 mg/ml BSA. The cells were adjusted to a concentration of 3-4×10^4 /ml and 100 μls of this cell suspension was added to the wells. The assay mixture was then incubated at 37° C for 120 minutes. […] The solubilized cells were then quantitated using a liquid scintillation counter. […]

inhibition of binding of heparin to laminin (intact, native laminin) | Structure (SMILES) | endothelial cell adhesion [1]
interact most strongly with heparin | CC[C@H](C)[C@H](NC(=O)[C@H](CCCCN)NC(=O)[C@H](CC(C)C)NC(=O)[C@H](C)NC(=O)[C@H](CCCCN)NC(=O)[C@H](C)NC(=O)[C@H](CCCCN)NC(=O)[C@H](CCC(=O)O)NC(=O)[C@H](CC(C)C)NC(=O)[C@H](Cc1ccccc1)NC(=O)[C@H](CCCCN)NC(=O)[C@H](Cc1c[nH]cn1)NC(=O)[C@@H](NC(=O)[C@H](CCCNC(=N)N)NC(=O)[C@H](CC(N)=O)NC(=O)[C@@H](NC(=O)[C@H](CC(C)C)NC(=O)[C@@H](N)CCC(=O)O)[C@@H](C)O)[C@@H](C)O)C(=O)O [Peptide F13, ELTNRTHKFLEKAKALKI] (H-ELTNRTHKFLEKAKALKI-OH) | potent promoters of endothelial cell adhesion
interact most strongly with heparin | CSCC[C@H](NC(=O)CNC(=O)[C@H](CCCCN)NC(=O)[C@H](CCC(=O)O)NC(=O)[C@H](Cc1ccccc1)NC(=O)[C@H](CS)NC(=O)[C@@H](NC(=O)[C@@H]1CCCN1C(=O)[C@H](CCCNC(=N)N)NC(=O)[C@@H]1CCCN1C(=O)[C@H](CC(C)C)NC(=O)[C@@H](NC(=O)[C@@H](NC(=O)[C@H](Cc1ccc(O)cc1)NC(=O)[C@@H](N)CCCNC(=N)N)C(C)C)C(C)C)C(C)C)C(=O)N[C@@H](CC(N)=O)C(=O)N[C@@H](Cc1ccc(O)cc1)C(=O)N[C@H](C(=O)N[C@H](C(=O)N[C@@H](CCCNC(=N)N)C(=O)O)C(C)C)[C@@H](C)O [Peptide F9] (H-RYVVLPRPVCFEKGMNYTVR-OH) | potent promoters of endothelial cell adhesion
